Target: MBL (Homo sapiens, UniProt P11226)
Experiment: affinity of monomeric saccharide unit to MBL
Assay type: binding

Sequence of MBL (P11226 21-248): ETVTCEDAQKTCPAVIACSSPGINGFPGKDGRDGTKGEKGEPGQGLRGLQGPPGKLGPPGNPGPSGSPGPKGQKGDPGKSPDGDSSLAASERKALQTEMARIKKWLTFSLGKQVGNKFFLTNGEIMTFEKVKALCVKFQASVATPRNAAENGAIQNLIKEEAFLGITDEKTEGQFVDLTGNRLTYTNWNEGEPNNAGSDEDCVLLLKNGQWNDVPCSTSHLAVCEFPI

SMILES | IC50
CC(=O)N[C@H]1C(O)O[C@H](CO)[C@@H](O)[C@@H]1O (some centres unmarked) [N-acetyl-glucosamine] | ~6 mM
O=C[C@H](O)[C@@H](O)[C@@H](O)[C@H](O)CO [galactose] | ~36 mM

Source: patent US8691517B2, “Flexible carbohydrate-bearing polymer” (Medtronic Minimed, Inc., priority 2005, dated 2014)
